From ChEMBL document CHEMBL1150148, “Isolation and structure elucidation of an isoflavone and a sesterterpenoic acid from Henriettella fascicularis” (J Nat Prod, 2002)
pIC50: −log10 of the molar value.

Experiments:
[1] = system: Ishikawa; test: Antiestrogenic activity in human Ishikawa cells assessed as inhibition of estradiol-induced induction of alkaline phosphatase activity at 20 uM after 4 days by para-nitrophenol release assay; assay type: functional; conditions: 96 h
[2] = system: Ishikawa; test: Estrogenic activity in human Ishikawa cells assessed as induction of alkaline phosphatase activity after 4 days by para-nitrophenol release assay; assay type: functional, cell-based; conditions: 96 h
[3] = system: Ishikawa; test: Antiestrogenic activity in human Ishikawa cells assessed as inhibition of estradiol-induced induction of alkaline phosphatase activity after 4 days by para-nitrophenol release assay; assay type: functional, cell-based; conditions: 96 h
[4] = biological target: Estrogen receptor beta (Homo sapiens, UniProt Q92731)
Sequence of Estrogen receptor beta (Q92731 whole entry): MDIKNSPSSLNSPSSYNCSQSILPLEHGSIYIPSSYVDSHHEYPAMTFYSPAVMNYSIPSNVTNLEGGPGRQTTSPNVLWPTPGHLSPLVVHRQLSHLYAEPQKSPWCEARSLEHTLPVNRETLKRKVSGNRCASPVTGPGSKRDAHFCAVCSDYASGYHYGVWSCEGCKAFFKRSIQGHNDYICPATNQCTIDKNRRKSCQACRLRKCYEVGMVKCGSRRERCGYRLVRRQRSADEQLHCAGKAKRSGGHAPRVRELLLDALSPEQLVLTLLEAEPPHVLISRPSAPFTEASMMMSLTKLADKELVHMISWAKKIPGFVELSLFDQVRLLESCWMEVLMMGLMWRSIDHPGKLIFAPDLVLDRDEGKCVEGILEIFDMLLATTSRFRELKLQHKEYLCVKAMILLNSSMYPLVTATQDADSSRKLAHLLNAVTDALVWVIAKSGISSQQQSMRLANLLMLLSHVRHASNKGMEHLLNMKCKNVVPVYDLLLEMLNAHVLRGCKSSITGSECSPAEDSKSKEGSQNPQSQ
Description: Displacement of [3H]estradiol from human recombinant ERbeta

[5] = biological target: T1, Estrogen receptor (Homo sapiens, UniProt P03372)
T1 sequence (P03372 whole entry): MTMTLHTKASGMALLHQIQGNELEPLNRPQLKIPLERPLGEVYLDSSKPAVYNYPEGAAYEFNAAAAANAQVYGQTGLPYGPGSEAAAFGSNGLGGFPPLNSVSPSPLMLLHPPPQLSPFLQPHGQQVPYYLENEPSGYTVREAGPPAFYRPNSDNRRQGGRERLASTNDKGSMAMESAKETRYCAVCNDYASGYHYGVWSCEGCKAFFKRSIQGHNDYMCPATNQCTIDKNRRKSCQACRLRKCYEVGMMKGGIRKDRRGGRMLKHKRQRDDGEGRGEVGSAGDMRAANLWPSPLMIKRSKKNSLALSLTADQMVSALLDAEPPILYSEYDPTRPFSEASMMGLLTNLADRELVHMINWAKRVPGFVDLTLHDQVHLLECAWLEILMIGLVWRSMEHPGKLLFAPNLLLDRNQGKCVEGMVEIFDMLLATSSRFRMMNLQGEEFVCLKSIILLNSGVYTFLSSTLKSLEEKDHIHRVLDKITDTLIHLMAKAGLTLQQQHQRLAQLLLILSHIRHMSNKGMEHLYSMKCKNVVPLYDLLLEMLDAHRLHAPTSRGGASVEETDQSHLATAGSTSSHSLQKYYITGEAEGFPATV

Row | Compound | inhibition at 20 µM [1] | pIC50 [2] | pIC50 [3] | pIC50 [4] | pIC50 [5]
1 | O=c1cc(-c2ccc(O)cc2)oc2cc(O)cc(O)c12 [APIGENIN] | 25% | – | – | – | –
2 | O=c1c(-c2ccc(O)cc2)coc2cc(O)cc(O)c12 [GENISTEIN] | – | 6.29 | – | – | –
3 | Cc1c(O)c(C)c2occ(-c3ccc(O)cc3)c(=O)c2c1O | – | < 4.70 | 4.98 | 6.06 | 4.99
